In article PMC6156508, “GA-Hecate antiviral properties on HCV whole cycle represent a new antiviral class and open the door for the development of broad spectrum antivirals” (Scientific Reports, 2018):
Where a SMILES comes first, the peptide text is derived from it. The star is where a group is joined. Galloyl = O=C(c1cc(O)c(O)c(O)c1)*

Legend:
[1] = system: Huh-7.5 cells harboring SGR-JFH-1 Feo; test: MTT cytotoxicity in hepatocytes; format: cell-based, human
Text: Figure 2 Hecate and its derivative-peptide effects on subgenomic HCV genotype 2a replication and hepatotoxicity. (A) Hecate. (B) Lys- Hecate. (C) GA-Hecate. (D) GA2-Hecate. (E) Acetyl-Hecate. (F) Glu-Hecate. Luciferase assays report HCV replication and MTT assays report the viability of Huh-7.5 cells harboring SGR-JFH-1 Feo under peptide treatment. Water was used as a negative control of virus replication inhibition and cell death (Control (−)), and Cyclosporine A was used as a positive control for virus replication inhibition (Control (+)). Red dotted lines represent the arbitrary threshold of 80% cell viability, and blue dotted lines represent the maximum inhibition presented by Hecate at the maximum safe concentration. Bars represent triplicates of the three independent assays. ***P < 0.01 vs control (−).
Peptide cytotoxicity profiles were measured by the MTT [3-(4,5-dimethylthiazol- 2-yl)-2,5-diphenyl tetrazolium bromide] (Sigma–Aldrich) method. Twenty-four hours before treatment, 5 × 10^3 SGR-harboring cell lines (SGR-Feo-JFH-1 or S52/SG-neo) were cultured with supplemented DMEM in a 96-multi-well plate and incubated at 37 °C in a humidified 5% CO2 incubator. On the subsequent day, peptide-containing medium was added at the following final concentrations: 2.5, 5, 10 and 20 μM. The tested peptides were Hecate and its derivatives, which included the following: lysine addition (Lysine-Hecate/Lys-Hecate); one or two molecules of Gallic Acid (GA-Hecate and GA2-Hecate); one acetyl radical (Acetyl-Hecate) or Glutamic acid (Glu-Hecate). After 48 h of incubation, peptide-media was removed, and MTT at a final concentration of 1 mg/mL was added to the wells, incubated for 30 minutes and subsequently replaced by 100 μL of DMSO. Absorbance was measured at 562 nm, using a plate spectrophotometer (FLUOstar Omega/BMG LABTECH, Offenburg, BW, DE). Cell viability was calculated considering water-treated cells (peptides diluent) as a negative control. All experiments were performed in triplicate and in three independent replicates. Further assays were performed considering at least 80% viability of the treated cells.
GA-Hecate toxicity and viral inhibition profile in 24, 48 and 72h post-treatment in […]
GA-Hecate toxicity and viral inhibition capacity were evaluated at 24, 48 and 72h post-treatment. Tested concentrations were 1.25; 2.5; 5; 10; 20; and 40 µM. At the end of every incubation, cells were stained using MTT as previously described. Similarly, at every time point, treated cells were lysed using PLB and summited to Luminescence analysis as previously described. […]

[2] = system: JFH-1-infected Huh-7.5 cells; test: HCV release/assembly evaluation (qPCR intra/extracellular HCV RNA); format: cell-based, hepatitis C virus; settings: 24 h treatment; 5, 10 and 20 μM, not dose-dependent
Description: (§1) Figure 6 GA-Hecate effect on HCV Release and infectivity. (A) HCV-infected Huh-7.5 cells were treated for 24 h with GA-Hecate. RNA was isolated and summited to qPCR for HCV 5′ UTR. Intracellular HCV expression was normalized by GAPDH, and extracellular HCV expression was calculated by absolute quantification. The difference between the intra and extracellular RNA expression represents the HCV release. Bars represent triplicate samples of three independent assays. Naringenin (200 μM) was used as a positive control of HCV release inhibition and water was a negative control of HCV release inhibition. ^aP < 0.001 vs Control (−), intracellular. ^bP < 0.001 vs Control (−), extracellular. F = 22.58, df (row factor) = 4. (B) Infectivity. HCV-infected Huh-7.5 cells were treated for 24 h with GA-Hecate, and then the supernatant was collected and used to infect naïve Huh-7.5 cells. The capacity of HCVcc particles to generate a new infection after GA-Hecate treatment is represented by the bars. […]
JFH-1-infected Huh-7.5 cells were used to evaluate the GA-Hecate effect on virus release/assembly. […] After treatment, the intracellular and extracellular RNA content was isolated following the TRIzol reagent protocol and quantified by qPCR of the HCV 5′ UTR region (forward: 5′ CGGGAGAGCCATAGTGG; reverse, 5′ […]; probe: 5′-FAM-[…]-TAMRA-3) using TaqMan® Universal PCR Master Mix (Thermo Scientific, CA, USA).

[3] = system: HCVcc particles released from treated cells, naïve Huh-7.5 cells; test: Infectivity assay of released particles (focus forming units); format: cell-based, hepatitis C virus
Description: as §1
To assess the effect of GA-Hecate on HCV virion infectivity, a similar process to release/assembly was done and the supernatant (extracellular content) was collected and used to infect naïve Huh-7.5 cells. HCV infectivity was evaluated by the focus forming units assay, following an indirect immunofluorescence (IFI) assay for HCV NS5A as previously described by Batista et al.[35].

[4] = system: lipid droplets in HCVcc-infected Huh-7.5 cells; test: Intracellular distribution and quantity of neutral lipids (Bodipy 493/503); format: cell-based, human; settings: 20 μM; 48 h; HCV-infected Huh-7.5
Text: Figure 7 GA-Hecate effect on lipid droplets. (A) Pattern of lipid droplet distribution on treated and non-treated HCV-infected Huh-7.5 cells and the lipid droplets relative quantification. Blue: DAPI staining nuclei; Green: lipid droplets stained by Bodipy 493/503; Red: HCV NS5A represented by Alexa fluor-594. (B) Light Scattering Dynamic showing synthetic unilamellar vesicle size with lipid droplet constitution after treatment with the following: I. Water (negative control of size change); II. Triton-X 100 (positive control of size change); III. Hecate; IV. GA-Hecate.
To evaluate the GA-Hecate effect on the intracellular neutral lipid distribution, the GA-Hecate-treated cells at maximum non-cytotoxic concentration (20 μM) were evaluated 48 h post-treatment. For this purpose, 2 × 10^4 Huh-7.5 cells that were infected with HCVcc were seeded in a 24-well plate 24 h […] the treatment. On the following day, GA-Hecate or water (peptide diluent) were added in the plate and incubated for 48 h. […] To quantify the intracellular lipid content, two - four photos/well were performed and the fluorescence intensity was measured by ImageJ software. Bodipy fluorescence was normalized with DAPI fluorescence.

CC(C)C[C@H](NC(=O)[C@H](C)NC(=O)[C@H](CCCCN)NC(=O)[C@H](CCCCN)NC(=O)[C@H](CC(C)C)NC(=O)[C@H](C)NC(=O)[C@H](CCCCN)NC(=O)[C@H](CCCCN)NC(=O)[C@H](CC(C)C)NC(=O)[C@H](CCCCN)NC(=O)[C@H](CCCCN)NC(=O)[C@H](CC(C)C)NC(=O)[C@H](C)NC(=O)[C@H](CCCCN)NC(=O)[C@H](CCCCN)NC(=O)[C@H](CC(C)C)NC(=O)[C@H](C)NC(=O)[C@H](CCCCN)NC(=O)[C@H](CC(C)C)NC(=O)[C@H](C)NC(=O)[C@H](CC(C)C)NC(=O)[C@H](C)NC(=O)[C@H](Cc1ccccc1)NC(=O)c1cc(O)c(O)c(O)c1)C(N)=O [GA-Hecate] (Galloyl-FALALKALKKALKKLKKALKKAL-NH2)
cell toxicity ([1]; 1.25 µM, 72 h): no cell toxicity | cell death ([1]; 20 μM): 20% | CC50 (50% cytotoxic concentration) ([1]; 48 h incubation, SGR-Feo-JFH-1 Huh-7.5 cells, triplicate in three independent assays): 34.95 µM | CC50 72 h post-treatment ([1]; 72 h, 1.25-40 µM): 19 µM | maximum non-toxic (safe) concentration in hepatocytes ([1]; arbitrary threshold of 80% cell viability, 48 h): 20 µM | inhibition of virus release [2]: approximately 50% | infection inhibition by released particles (infectivity) ([3]; 20 μM, supernatant of cells treated 24 h on naïve Huh-7.5): approximately 100% | share of released HCV able to generate a new infection ([3]; supernatant of GA-Hecate-treated cells): less than 1% | effect on lipid droplets distribution and quantity [4]: altered the lipid droplets distribution and reduced its quantity
